Melting point data for 29 compounds are collected here from US7638540B2, “Benzofuran compound and medicinal composition containing the same” (The New Industry Research Organization, priority 2003, dated 2009).

By melting point is commonly meant the temperature of the solid-liquid transition. Regarding `CCOC(=O)c1oc2ccc(/C(C)=C/C(=O)N(CC)CC)cc2c1NC(=O)c1cnoc1C` [Example 91, Ethyl (E)-5-(2-diethylcarbamoyl-1-methylvinyl)-3-[(5-methylisoxazole-4-carbonyl)amino]benzofurane-2-carboxylate], the melting point lay in the range of 138.9 to 141.2 °C.
`COc1cccc2c(NC(=O)/C(C#N)=C(/C)O)c(C(=O)c3ccc(Br)cc3)oc12` [Example 99, (Z)-N-[2-(4-bromobenzoyl)-7-methoxybenzofuran-3-yl]-2-cyano-3-hydroxy-2-butenamide] gave a melting point of 131.7 to 133.4 °C.
With `C/C(=C\C(=O)N1CCOCC1)c1ccc2oc(C(=O)c3ccc(C#N)cc3)c(NC(=O)c3cnoc3C)c2c1` [Example 81, (E)-N-[2-(4-cyanobenzoyl)-5-(1-methyl-3-morpholino-3-oxo-1-propenyl)benzofuran-3-yl]-5-methylisoxazole-4-carboxamide] the figure was 229.4 to 232.5 °C; with `C/C(O)=C(\C#N)C(=O)Nc1c(C#N)oc2ccc(Br)cc12` [Example 104, (Z)-N-(5-bromo-2-cyanobenzofuran-3-yl)-2-cyano-3-hydroxy-2-butenamide], 206.3 to 208.3 °C.
Consider `CCOC(=O)/C=C/C=C(\Cl)c1cc2cc(Br)ccc2o1` [Example 159, Ethyl (2E,4Z)-5-(5-bromobenzofuran-2-yl)-5-chloropenta-2,4-dienoate], for which the melting point lay in the range of 109 to 113 °C.
`CC(=O)c1oc2ccccc2c1NC(=O)c1cnoc1C` [Example 69, N-(2-acetylbenzofuran-3-yl)-5-methylisoxazole-4-carboxamide] yielded a melting point of 174 to 177 °C.
`CC(=O)c1oc2ccc(/C(C)=C/C(=O)N3CCOCC3)cc2c1N` [Example 23, (E)-3-(2-acetyl-3-aminobenzofuran-5-yl)-1-morpholino-2-buten-1-one] showed a melting point of 256.4 to 262.1 °C.
`CCN(CC)C(=O)/C=C(\C)c1cc(Cl)cc2cc(C(C)=O)oc12` [Example 170, (E)-3-(2-acetyl-5-chloro-benzofuran-7-yl)-2-butenoic acid diethylamide] showed a melting point of 116 to 117.5 °C.
Under `Brc1ccc2oc(-c3csc(-c4ccccc4)n3)cc2c1` [Example 212, 4-(5-bromobenzofuran-2-yl)-2-phenylthiazole] stands 185.5 to 187.8 °C; under `CC(=O)NC(C)c1cc2ccccc2o1` (centres unmarked) [Example 190, N-(1-benzofuran-2-ylethyl)acetamide], 128 to 130 °C.
Consider `COc1cccc(NC(=O)c2oc3ccc(Br)cc3c2NC(=O)c2cnoc2C)c1` [Example 183, 5-methyl-isoxazole-4-carboxylic acid [5-bromo-2-(3-methoxyphenylcarbamoyl)benzofuran-3-yl]amide], for which the melting point lay within 223 to 229 °C.
`CC(=O)c1cc2cc(/C(C)=C/C(=O)O)ccc2o1` [Example 134, (E)-3-(2-acetylbenzofuran-5-yl)-2-butenoic acid] gave a melting point of 220.4 to 223.5 °C.
As for `CCN(CC)C(=O)/C=C(/C)c1oc2ccc(Br)cc2c1C` [Example 153, (Z)-3-(5-bromo-3-methylbenzofuran-2-yl)-2-butenoic acid diethylamide], the melting point lay within 60.1 to 62 °C.
`CCN(CC)C(=O)/C=C(\C)c1ccc2oc(C(=O)c3ccc(C#N)cc3)c(NC(=O)/C(C#N)=C(/C)O)c2c1` [Example 109, N-[2-(4-cyanobenzoyl)-5-((E)-2-diethylcarbamoyl-1-methylvinyl)benzofuran-3-yl]-2-cyano-3-hydroxy-(Z)-2-butenamide] showed a melting point of 219.5 to 222.8 °C.
Under `CC(=O)c1oc2ccc(Br)cc2c1NC(=O)c1cnoc1C` [Example 65, N-(2-acetyl-5-bromobenzofuran-3-yl)-5-methylisoxazole-4-carboxamide] stands 206 to 208 °C.
Compound `CCOC(=O)/C=C(\C)c1ccc2oc(/C(Cl)=C/C=C/C(=O)N3CCOCC3)cc2c1` [Example 148, Ethyl 3-[2-(1-chloro-5-morpholin-4-yl-5-oxo-penta-(1Z,3E)-1,3-dienyl)benzofuran-5-yl]-(E)-2-butenoate] came in with a melting point of 194.6 to 196.5 °C.
As for `COc1ccc(C(=O)Nc2c(Cl)oc3ccc(Br)cc23)cc1` [Example 200, N-(5-bromo-2-chlorobenzofuran-3-yl)-4-methoxybenzamide], the melting point lay in the range of 195.5 to 197 °C.
With `C/C(O)=C(\C#N)C(=O)Nc1c(C#N)oc2ccccc12` [Example 105, (Z)-N-(2-cyanobenzofuran-3-yl)-2-cyano-3-hydroxy-2-butenamide] the figure was 165.8 to 167.2 °C; with `COc1cccc2c(NC(=O)/C=C/c3ccccc3)c(C(=O)c3ccc(Br)cc3)oc12` [Example 179, (E)-N-[2-(4-bromobenzoyl)-7-methoxybenzofuran-3-yl]-3-phenylacrylamide], 236.5 to 237.8 °C.
Under `Cc1oc2ccc(Br)cc2c1/C(Cl)=C/C=O` [Example 151, (Z)-3-(5-bromo-2-methylbenzofuran-3-yl)-3-chloropropenal] stands 99.8 to 104 °C; under `CC(=O)c1oc2ccc(/C(C)=C/C(=O)N3CCOCC3)cc2c1NC(=O)/C(C#N)=C(/C)O` [Example 108, N-[2-acetyl-5-(1-methyl-3-morpholino-3-oxo-(E)-1-propenyl)benzofuran-3-yl]-2-cyano-3-hydroxy-(Z)-2-butenamide], 206.9 to 208.6 °C; under `COc1ccc(/C=C/C(=O)c2oc3ccc(Br)cc3c2NC(=O)CNCc2ccccc2)cc1` [Example 196, (E)-2-benzylamino-N-{5-bromo-2-[3-(4-methoxyphenyl)acryloyl]benzofuran-3-yl}acetamide], 174.2 to 176.5 °C.
`O=C(/C=C/c1ccccc1)Nc1c(Cl)oc2ccc(Br)cc12` [Example 180, (E)-N-(5-bromo-2-chlorobenzofuran-3-yl)-3-phenylacrylamide]: the melting point was 248.7 to 250.3 °C.
Consider `C/C=C/C(=O)Nc1c(Cl)oc2ccc(Br)cc12` [Example 184, (E)-2-butenoic acid (5-bromo-2-chlorobenzofuran-3-yl)amide], for which the melting point is 200 to 202 °C.
Under `CCN(CC)C(=O)/C=C(\C)c1ccc(OC(c2ccccc2)c2ccccc2)c2oc(C(C)=O)cc12` [Example 4, (E)-3-(2-acetyl-7-benzhydryloxybenzofuran-4-yl)-N,N-diethyl-2-butenamide] stands 163.3 to 165.2 °C; under `COc1ccc(NC(=O)/C=C(\C)c2cc3cccc(OC(c4ccccc4)c4ccccc4)c3o2)cc1OC` [Example 45, (E)-3-(7-benzhydryloxybenzofuran-2-yl)-N-(3,4-dimethoxyphenyl)-2-butenamide], 93.9 to 94.5 °C; under `C/C=C/C(=O)NC(C)c1cc2cccc(OCCCCl)c2o1` (centres unmarked) [Example 133, (E)-N-{1-[7-(3-chloropropoxy)benzofuran-2-yl]ethyl}-2-butenamide], 104.7 to 107.7 °C.
Compound `Cc1oncc1C(=O)Nc1c(C(N)=O)oc2ccccc12` [Example 79, N-(2-carbamoylbenzofuran-3-yl)-5-methylisoxazole-4-carboxamide] had a melting point of 250.7 to 252.6 °C.
Compound `C/C=C/C(=O)Nc1c(C(C)=O)oc2ccc(Br)cc12` [Example 123, (E)-N-(2-acetyl-5-bromobenzofuran-3-yl)-2-butenamide] had a melting point of 127.8 to 130 °C.
